Results taken from PMC11576293, “New series of 4,6-diaryl pyrimidines: facile synthesis and antiproliferative activity as dual EGFR/VEGFR-2 inhibitors” (Frontiers in Chemistry, 2024).

Legend:
Test in all cases: NCI-60 single-dose screen
Type in all cases: cell-based
MDA-MB-468 = details: Homo sapiens, single dose 10 µM, '-' = no inhibition, read-out: % Growth Inhibition
Method: (§1) The National Cancer Institute’s Developmental Therapeutic Program (www.dtp.nci.nih.gov) has tested compounds 9–29 (except compounds 21 and 22) against 60 cancer cell lines from nine types (leukemia, lung, colon, CNS, melanoma, ovarian, renal, prostate, and breast cancer) at a single dose (10 μM) ([El-Sherief et al., 2018]). […] The most sensitive cells included leukemia (SR, K-562, and MOLT-4), lung (NCI-H522, […], and EKVX), breast (MCF-7 and T-47D), colon (HCT-15 and HT-29), and ovarian (NCI/ADR-RES).
(§2) The National Cancer Institute’s Developmental Therapeutic Program (www.dtp.nci.nih.gov) evaluated compounds 9–29 (excluding 21 and 22) against 60 cancer cell lines from nine categories (leukemia, lung, colon, CNS, melanoma, ovarian, renal, prostate, and breast cancer) at a single dose (10 μM) ([El-Sherief et al., 2018]). See Supplementary Material A1 for more details.

SN12C = details: Homo sapiens, single dose 10 µM, '-' = no inhibition, read-out: % Growth Inhibition
Method: as §1, §2

SNB-75 = details: Homo sapiens, single dose 10 µM, '-' = no inhibition, read-out: % Growth Inhibition
Method: as §1, §2

KM12 = details: Homo sapiens, single dose 10 µM, '-' = no inhibition, read-out: % Growth Inhibition
Method: as §1, §2

HL-60(TB) = details: Homo sapiens, single dose 10 µM, '-' = no inhibition, read-out: % Growth Inhibition
Method: as §1, §2

CCRF-CEM = details: Homo sapiens, single dose 10 µM, '-' = no inhibition, read-out: % Growth Inhibition
Method: as §1, §2

SR = details: Homo sapiens, single dose 10 µM, '-' = no inhibition, read-out: % Growth Inhibition
Method: as §1, §2

MALME-3M = details: Homo sapiens, single dose 10 µM, '-' = no inhibition, read-out: % Growth Inhibition
Method: as §1, §2

NCI-H23 = details: Homo sapiens, single dose 10 µM, '-' = no inhibition, read-out: % Growth Inhibition
Method: as §1, §2

NCI-H460 = details: Homo sapiens, single dose 10 µM, '-' = no inhibition, read-out: % Growth Inhibition
Method: as §1, §2

TK-10 = details: Homo sapiens, single dose 10 µM, '-' = no inhibition, read-out: % Growth Inhibition
Method: as §1, §2

DU-145 = details: Homo sapiens, single dose 10 µM, '-' = no inhibition, read-out: % Growth Inhibition
Method: as §1, §2

HCC-2998 = details: Homo sapiens, single dose 10 µM, '-' = no inhibition, read-out: % Growth Inhibition
Method: as §1, §2

SW-620 = details: Homo sapiens, single dose 10 µM, '-' = no inhibition, read-out: % Growth Inhibition
Method: as §1, §2

786-0 = details: Homo sapiens, single dose 10 µM, '-' = no inhibition, read-out: % Growth Inhibition
Method: as §1, §2

A549/ATCC = details: Homo sapiens, single dose 10 µM, '-' = no inhibition, read-out: % Growth Inhibition
Method: as §1, §2

HOP-62 = details: Homo sapiens, single dose 10 µM, '-' = no inhibition, read-out: % Growth Inhibition
Method: as §1, §2

OVCAR-8 = details: Homo sapiens, single dose 10 µM, '-' = no inhibition, read-out: % Growth Inhibition
Method: as §1, §2

HCT-116 = details: Homo sapiens, single dose 10 µM, '-' = no inhibition, read-out: % Growth Inhibition
Method: as §1, §2

SF-268 = details: Homo sapiens, single dose 10 µM, '-' = no inhibition, read-out: % Growth Inhibition
Method: as §1, §2

HT29 = details: Homo sapiens, HT-29, single dose 10 µM, '-' = no inhibition, read-out: % Growth Inhibition
Method: as §1, §2

T-47D = details: Homo sapiens, T47D, single dose 10 µM, '-' = no inhibition, read-out: % Growth Inhibition
Method: as §1, §2

SF-295 = details: Homo sapiens, single dose 10 µM, '-' = no inhibition, read-out: % Growth Inhibition
Method: as §1, §2

ACHN 1 = details: Homo sapiens, single dose 10 µM, '-' = no inhibition, read-out: % Growth Inhibition
Method: as §1, §2

SK-MEL-5 = details: Homo sapiens, single dose 10 µM, '-' = no inhibition, read-out: % Growth Inhibition
Method: as §1, §2

COLO 205 = details: Homo sapiens, single dose 10 µM, '-' = no inhibition, read-out: % Growth Inhibition
Method: as §1, §2

BT-549 = details: Homo sapiens, single dose 10 µM, '-' = no inhibition, read-out: % Growth Inhibition
Method: as §1, §2

SK-MEL-28 = details: Homo sapiens, single dose 10 µM, '-' = no inhibition, read-out: % Growth Inhibition
Method: as §1, §2

HOP-92 = details: Homo sapiens, single dose 10 µM, '-' = no inhibition, read-out: % Growth Inhibition
Method: as §1, §2

OVCAR-4 = details: Homo sapiens, single dose 10 µM, '-' = no inhibition, read-out: % Growth Inhibition
Method: as §1, §2

MCF7 = details: Homo sapiens, single dose 10 µM, '-' = no inhibition, read-out: % Growth Inhibition
Method: as §1, §2

M14 = details: Homo sapiens, single dose 10 µM, '-' = no inhibition, read-out: % Growth Inhibition
Method: as §1, §2

RXF 393 = details: Homo sapiens, single dose 10 µM, '-' = no inhibition, read-out: % Growth Inhibition
Method: as §1, §2

EKVX = details: Homo sapiens, single dose 10 µM, '-' = no inhibition, read-out: % Growth Inhibition
Method: as §1, §2

U251 = details: Homo sapiens, U-251, single dose 10 µM, '-' = no inhibition, read-out: % Growth Inhibition
Method: as §1, §2

IGROV1 = details: Homo sapiens, IGROV-1, single dose 10 µM, '-' = no inhibition, read-out: % Growth Inhibition
Method: as §1, §2

UACC-257 = details: Homo sapiens, single dose 10 µM, '-' = no inhibition, read-out: % Growth Inhibition
Method: as §1, §2

SF-539 = details: Homo sapiens, single dose 10 µM, '-' = no inhibition, read-out: % Growth Inhibition
Method: as §1, §2

RPMI-8226 = details: Homo sapiens, single dose 10 µM, '-' = no inhibition, read-out: % Growth Inhibition
Method: as §1, §2

PC-3 = details: Homo sapiens, single dose 10 µM, '-' = no inhibition, read-out: % Growth Inhibition
Method: as §1, §2

SK-MEL-2 = details: Homo sapiens, single dose 10 µM, '-' = no inhibition, read-out: % Growth Inhibition
Method: as §1, §2

HS 578T = details: Homo sapiens, single dose 10 µM, '-' = no inhibition, read-out: % Growth Inhibition
Method: as §1, §2

A498 = details: Homo sapiens, single dose 10 µM, '-' = no inhibition, read-out: % Growth Inhibition
Method: as §1, §2

K-562 = details: Homo sapiens, K562, single dose 10 µM, '-' = no inhibition, read-out: % Growth Inhibition
Method: as §1, §2

MDA-MB-435 = details: Homo sapiens, single dose 10 µM, '-' = no inhibition, read-out: % Growth Inhibition
Method: as §1, §2

OVCAR-5 = details: Homo sapiens, single dose 10 µM, '-' = no inhibition, read-out: % Growth Inhibition
Method: as §1, §2

NCI-H322M = details: Homo sapiens, single dose 10 µM, '-' = no inhibition, read-out: % Growth Inhibition
Method: as §1, §2

CCSc1nc(-c2ccc(OC)cc2)cc(-c2cccc(OC)c2)n1 [Compound 17, 2-(Ethylthio)-6-(3-methoxyphenyl)-4-(4-methoxyphenyl)pyrimidine]
inhibition at 10 µM (MDA-MB-468): < 0% | inhibition at 10 µM (SN12C): < 0% | inhibition at 10 µM (SNB-75): < 0% | inhibition at 10 µM (KM12): 2.23% | inhibition at 10 µM (HL-60(TB)): 18.6% | inhibition at 10 µM (CCRF-CEM): 2.15% | inhibition at 10 µM (SR): 18.4% | inhibition at 10 µM (MALME-3M): < 0% | inhibition at 10 µM (NCI-H23): < 0% | inhibition at 10 µM (NCI-H460): < 0% | inhibition at 10 µM (TK-10): < 0% | inhibition at 10 µM (DU-145): < 0% | inhibition at 10 µM (HCC-2998): < 0% | inhibition at 10 µM (SW-620): 1.81% | inhibition at 10 µM (786-0): < 0% | inhibition at 10 µM (A549/ATCC): 0.61% | inhibition at 10 µM (HOP-62): < 0% | inhibition at 10 µM (OVCAR-8): < 0% | inhibition at 10 µM (HCT-116): 5.86% | inhibition at 10 µM (SF-268): < 0% | inhibition at 10 µM (HT29): < 0% | inhibition at 10 µM (T-47D): 10.2% | inhibition at 10 µM (SF-295): < 0% | inhibition at 10 µM (ACHN 1): < 0% | inhibition at 10 µM (SK-MEL-5): 6.31% | inhibition at 10 µM (COLO 205): < 0% | inhibition at 10 µM (BT-549): < 0% | inhibition at 10 µM (SK-MEL-28): < 0% | inhibition at 10 µM (HOP-92): < 0% | inhibition at 10 µM (OVCAR-4): 3.36% | inhibition at 10 µM (MCF7): 11% | inhibition at 10 µM (M14): < 0% | inhibition at 10 µM (RXF 393): < 0% | inhibition at 10 µM (EKVX): 1.03% | inhibition at 10 µM (U251): < 0% | inhibition at 10 µM (IGROV1): < 0% | inhibition at 10 µM (UACC-257): < 0% | inhibition at 10 µM (SF-539): < 0% | inhibition at 10 µM (RPMI-8226): 3.83% | inhibition at 10 µM (PC-3): < 0% | inhibition at 10 µM (SK-MEL-2): 5.15% | inhibition at 10 µM (HS 578T): < 0% | inhibition at 10 µM (A498): < 0% | inhibition at 10 µM (K-562): 9.37% | inhibition at 10 µM (MDA-MB-435): 2.52% | inhibition at 10 µM (OVCAR-5): < 0% | inhibition at 10 µM (NCI-H322M): < 0%
